Results taken from patent US20250049904A1, “IMMUNOSTIMULATORY COMPOSITIONS” (VICTORIA LINK LIMITED, priority 2021, published 2025).

Tested on: liver TRM cells
Test: LPX-mOVA-CI058 vaccination of NKT cell-deficient mice; liver TRM cells
Format: in vivo, TRAJ18-deficient mice
Conditions: LPX vaccine with CI058, 28 days after vaccination
Method: Groups (n=3) of C57BL/6 mice or TRAJ18-deficient mice were vaccinated with LPX-mOVA-CI058, or injected with PBS vehicle. The TRAJ18-deficient strain cannot complete the TCR rearrangement required to form the TCR-alpha chain used by type I NKT cells, and therefore are deficient in these cells, while the remaining T cell repertoire is largely intact. No prior transfer of OT-I cells was conducted, so results reflect endogenous T cell responses to vaccination. Mean number of TRM cells in liver 28 days after vaccination for each treatment group (±SEM) are shown; dots represent individual mice. **P<0.01,
C57BL/6 (B6), OT-I^1, and TRAJ18^−/− mice were bred and maintained at the Department of Microbiology and Immunology, The University of Melbourne, or the BRU, Malaghan Institute of Medical Research, New Zealand. […]
Lymphocytes were stained with monoclonal antibodies for: CD8a (53-6.7), Ly5.1 (A20), CD44 (IM7), CXCR6 (SA051D1), CX3CR1 (SA011F11), from BioLegend (Australian Biosearch, Karrinyup, WA. Australia), and CD62L (MEL-14) and CD69 (H1.2F3), from eBioscience (Jomar Life Research, Scoresby, VIC, Australia). […] Single-color positive control samples were used to adjust compensation and cells were analyzed by flow cytometry on a LSR Fortessa (BD Biosciences), or LSRII SORP using Flowjo software (Tree Star Inc.).

## CCCCCCCCCCCCCCCCCCCCCCCCCC(=O)N[C@@H](CO[C@H]1O[C@H](CSCC(=O)Nc2ccc(C3=C4C(C)=CC(C)=[N+]4[B-](F)(F)n4c(C)cc(C)c43)cc2)[C@H](O)[C@H](O)[C@H]1O)[C@H](O)[C@H](O)CCCCCCCCCCCCCC [CI058, (2S,3S,4R)-1-(6-Deoxy-6-((2-((4-(5,5-difluoro-1,3,7,9-tetramethyl-5H-4λ4,5λ4-dipyrrolo[1,2-c:2′,1′-f][1,3,2]diazaborinin-10-yl)phenyl)amino)-2-oxoethyl)thio)-α-D-galactopyranosyloxy)-2-hexacosanoylamino-3,4-octadecandiol]
  liver TRM cell accumulation in NKT cell-deficient mice: no liver TRM cell accumulation is induced
